According to US6461997B1, “Triazole sulfones having herbicidal activity” (Monsanto Technology LLC, priority 1999, dated 2002):

Columns and labels:
SOLNI (black nightshade) = assay: Pre-emergence herbicidal activity, warm season; assay type: in vivo, Solanum nigrum; conditions: GR80 = lowest tested rate (300, 100, 30, 10 g/ha) with 80% or greater inhibition; approx. 14 days after treating; 30/21° C.
In short: (§1)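 GR80 values derive from percent inhibition relative to untreated plants, read roughly 14 days after sowing and pre-emergence soil-surface treatment (compound in 50:50 acetone/water; rates typically 10, 30, 100, 300 g/ha). Warm-season weeds grew at 30/21° C day/night, cool-season ones at 18/13° C; an asterisk marks activity without reaching 80% at the highest rate.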

AMARE (redroot pigweed) = assay: Pre-emergence herbicidal activity, warm season; assay type: in vivo, Amaranthus retroflexus; conditions: GR80 = lowest tested rate (300, 100, 30, 10 g/ha) with 80% or greater inhibition; approx. 14 days after treating; 30/21° C.
In short: as §1

[1] = system: CHEAL (common lambsquarters); assay: Pre-emergence herbicidal activity, warm season; assay type: in vivo, Chenopodium album; conditions: GR80 = lowest tested rate (300, 100, 30, 10 g/ha) with 80% or greater inhibition; approx. 14 days after treating; 30/21° C.
In short: as §1

CONAR (field bindweed) = assay: Pre-emergence herbicidal activity, warm season; assay type: in vivo, Convolvulus arvensis; conditions: GR80 = lowest tested rate (300, 100, 30, 10 g/ha) with 80% or greater inhibition; approx. 14 days after treating; 30/21° C.
Method: (§2) Tables 5 to 8 summarize results of tests conducted as described below to determine the pre-emergence herbicidal activity, in the form of a GR80 value, of illustrative compounds of this invention. […] Compounds of the invention were typically applied at rates of 300, 100, 30, and 10 g/ha. Where herbicidal activity was evident but 80% inhibition was not achieved at the highest rate tested, an asterisk (*) is shown in the following tables.
(§3) The pre-emergence tests were conducted by the following procedure. Topsoil was sieved to pass through a 1.27 cm screen. Fertilizer was added to the topsoil and the mixture was then sterilized by heating. The topsoil mixture was placed in a pot and compacted to a depth of 1.0 to 1.25 cm from the top of the pot. Seeds of each of several monocotyledonous and dicotyledonous annual plant species were placed on top of the soil. Additional soil was subsequently placed over the seeds to level-fill the pot. A known amount of each test compound dissolved or suspended in an appropriate organic solvent was diluted with a 50:50 mix of acetone and water and applied to the surface of the soil. After treatment the plants were placed in a greenhouse where they received 0.64 cm of overhead irrigation. All subsequent watering consisted of a light overhead mist and/or subirrigation as needed for germination and growth. Tables 5 and 6 below relate to warm season plant species which were placed after pre-emergence treatment in a greenhouse with a 30/21° C. day/night temperature regime. Tables 7 and 8 below relates to cool season plant species placed after pre-emergence treatment in a greenhouse or growth chamber with an 18/13° C. day/night temperature regime.
(§4) Approximately 14 days after planting and treating, the plants were observed and herbicidal efficacy recorded as percent inhibition by comparison with untreated plants.
(§5) The plant species usually regarded as weeds which were utilized in the tests are identified in the tables below according to the following legend, in which “d” indicates a dicotyledonous species and “m” a monocotyledonous species. All monocotyledonous species included in the tests herein are grasses.

POROL (common purslane) = assay: Pre-emergence herbicidal activity, warm season; assay type: in vivo, Portulaca oleracea; conditions: GR80 = lowest tested rate (300, 100, 30, 10 g/ha) with 80% or greater inhibition; approx. 14 days after treating; 30/21° C.
In short: as §1

[2] = system: CIRAR (canada thistle (seedling)); assay: Pre-emergence herbicidal activity, warm season; assay type: in vivo, Cirsium arvense; conditions: GR80 = lowest tested rate (300, 100, 30, 10 g/ha) with 80% or greater inhibition; approx. 14 days after treating; 30/21° C.
In short: as §1

[3] = system: PANMI (wild proso millet); assay: Pre-emergence herbicidal activity, warm season; assay type: in vivo, Panicum miliaceum; conditions: GR80 = lowest tested rate (300, 100, 30, 10 g/ha) with 80% or greater inhibition; approx. 14 days after treating; 30/21° C.
In short: (§6)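 Pre-emergence soil-surface spray; rates 300/100/30/10 g/ha; acetone:water 50:50 diluent. Warm-season species (PANMI, DIGSA) grown at 30/21 °C, cool-season species (ALOMY, POLCO) at 18/13 °C. Inhibition scored ~14 d after treatment versus untreated controls → GR80.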

[4] = system: SORHA (johnsongrass (seedling)); assay: Pre-emergence herbicidal activity, warm season; assay type: in vivo, Sorghum halepense; conditions: GR80 = lowest tested rate (300, 100, 30, 10 g/ha) with 80% or greater inhibition; approx. 14 days after treating; 30/21° C.
In short: (§7)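 Seeds sown in sterilised fertilised topsoil received surface-applied compound in 50:50 acetone/water, typically at 300, 100, 30 and 10 g/ha, then greenhouse-grown at 30/21° C (warm-season species) or 18/13° C (cool-season species). Percent inhibition versus untreated plants was scored at about 14 days, giving GR80; an asterisk marks activity short of 80% at the top rate.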

SETFA (giant foxtail) = assay: Pre-emergence herbicidal activity, warm season; assay type: in vivo, Setaria faberi; conditions: GR80 = lowest tested rate (300, 100, 30, 10 g/ha) with 80% or greater inhibition; approx. 14 days after treating; 30/21° C.
In short: as §7

SORVU (shattercane) = assay: Pre-emergence herbicidal activity, warm season; assay type: in vivo, Sorghum vulgare; conditions: GR80 = lowest tested rate (300, 100, 30, 10 g/ha) with 80% or greater inhibition; approx. 14 days after treating; 30/21° C.
In short: as §7

[5] = system: BRAPP (broadleaf signalgrass); assay: Pre-emergence herbicidal activity, warm season; assay type: in vivo, Brachiaria platyphylla; conditions: GR80 = lowest tested rate (300, 100, 30, 10 g/ha) with 80% or greater inhibition; approx. 14 days after treating; 30/21° C.
In short: as §7

DIGSA (large crabgrass) = assay: Pre-emergence herbicidal activity, warm season; assay type: in vivo, Digitaria sanguinalis; conditions: GR80 = lowest tested rate (300, 100, 30, 10 g/ha) with 80% or greater inhibition; approx. 14 days after treating; 30/21° C.
In short: as §6

[6] = system: GALAP (catchweed bedstraw); assay: Pre-emergence herbicidal activity, cool season; assay type: in vivo, Galium aparine; conditions: lowest tested rate with 80% or greater inhibition; rates 300, 100, 30, 10 g/ha; about 14 days
In short: as §1

POLCO (wild buckwheat) = assay: Pre-emergence herbicidal activity, cool season; assay type: in vivo, Polygonum convolvulus; conditions: lowest tested rate with 80% or greater inhibition; rates 300, 100, 30, 10 g/ha; about 14 days
In short: as §6

SINAR (wild mustard) = assay: Pre-emergence herbicidal activity, cool season; assay type: in vivo, Sinapis arvensis; conditions: lowest tested rate with 80% or greater inhibition; rates 300, 100, 30, 10 g/ha; about 14 days
In short: as §1

[7] = system: VERPE (creeping speedwell); assay: Pre-emergence herbicidal activity, cool season; assay type: in vivo, Veronica persicaria; conditions: lowest tested rate with 80% or greater inhibition; rates 300, 100, 30, 10 g/ha; about 14 days
In short: as §1

SASKR (russian thistle) = assay: Pre-emergence herbicidal activity, cool season; assay type: in vivo, Salsola kali; conditions: lowest tested rate with 80% or greater inhibition; rates 300, 100, 30, 10 g/ha; about 14 days
In short: as §1

STEME (common chickweed) = assay: Pre-emergence herbicidal activity, cool season; assay type: in vivo, Stellaria media; conditions: lowest tested rate with 80% or greater inhibition; rates 300, 100, 30, 10 g/ha; about 14 days
In short: as §1

[8] = system: LAMPU (purple deadnettle); assay: Pre-emergence herbicidal activity, cool season; assay type: in vivo, Lamium purpureum; conditions: lowest tested rate with 80% or greater inhibition; rates 300, 100, 30, 10 g/ha; about 14 days
In short: as §1

ALOMY (blackgrass) = assay: Pre-emergence herbicidal activity, cool season; assay type: in vivo, Alopecurus myosuroides; conditions: GR80 = lowest tested rate (300, 100, 30, 10 g/ha) with 80% or greater inhibition; approx. 14 days after treating; 18/13° C.
In short: as §6

SETVI (green foxtail) = assay: Pre-emergence herbicidal activity, cool season; assay type: in vivo, Setaria viridis; conditions: GR80 = lowest tested rate (300, 100, 30, 10 g/ha) with 80% or greater inhibition; approx. 14 days after treating; 18/13° C.
In short: as §1

[9] = system: AGSST (creeping bentgrass); assay: Pre-emergence herbicidal activity, cool season; assay type: in vivo, Agrostis stolonifera; conditions: GR80 = lowest tested rate (300, 100, 30, 10 g/ha) with 80% or greater inhibition; approx. 14 days after treating; 18/13° C.
In short: as §1

ABUTH (velvetleaf) = assay: Pre-emergence herbicidal activity, warm season; assay type: in vivo, Abutilon theophrasti; conditions: GR80 = lowest tested rate (300, 100, 30, 10 g/ha) with 80% or greater inhibition; approx. 14 days after treating; 30/21° C.
Method: as §2, §3, §4, §5

DATST (jimsonweed) = assay: Pre-emergence herbicidal activity, warm season; assay type: in vivo, Datura stramonium; conditions: GR80 = lowest tested rate (300, 100, 30, 10 g/ha) with 80% or greater inhibition; approx. 14 days after treating; 30/21° C.
Method: as §2, §3, §4, §5

Structure (SMILES)	Pre-emergence activity (GR80) SOLNI (SOLNI (black nightshade)) [g/ha]	Pre-emergence activity (GR80) AMARE (AMARE (redroot pigweed)) [g/ha]	Pre-emergence activity (GR80) CHEAL [1] [g/ha]	Pre-emergence activity (GR80) CONAR (CONAR (field bindweed)) [g/ha]	Pre-emergence activity (GR80) POROL (POROL (common purslane)) [g/ha]	Pre-emergence activity (GR80) CIRAR [2] [g/ha]	Pre-emergence activity (GR80) PANMI [3] [g/ha]	Pre-emergence activity (GR80) SORHA [4] [g/ha]	Pre-emergence activity (GR80) SETFA (SETFA (giant foxtail)) [g/ha]	Pre-emergence activity (GR80) SORVU (SORVU (shattercane)) [g/ha]	Pre-emergence activity (GR80) BRAPP [5] [g/ha]	Pre-emergence activity (GR80) DIGSA (DIGSA (large crabgrass)) [g/ha]	Pre-emergence activity GR80, GALAP [6]	Pre-emergence activity GR80, POLCO (POLCO (wild buckwheat))	Pre-emergence activity GR80, SINAR (SINAR (wild mustard))	Pre-emergence activity GR80, VERPE [7]	Pre-emergence activity GR80, SASKR (SASKR (russian thistle))	Pre-emergence activity GR80, STEME (STEME (common chickweed))	Pre-emergence activity GR80, LAMPU [8]	Pre-emergence activity (GR80) ALOMY (ALOMY (blackgrass)) [g/ha]	further results
O=C(N1CCCC1)n1cnc(S(=O)(=O)C(F)(F)Cl)n1 [Example 83]	300	300	100	300	100	100	100	300	300	300	100	100	100 g/ha	300 g/ha	[empty]	[empty]	300 g/ha	300 g/ha	100 g/ha	300	Pre-emergence activity (GR80) SETVI (SETVI (green foxtail)): 300 g/ha; Pre-emergence activity (GR80) AGSST [9]: 100 g/ha
CN(Cc1ccccc1)C(=O)n1cnc(S(=O)(=O)C(F)(F)Cl)n1 [Example 92]			300	300									[empty]	[empty]	[empty]	[empty]	[empty]	[empty]	[empty]		
CCN(CC)C(=S)n1cnc(S(=O)(=O)C(F)(F)Cl)n1 [Example 94]	100	10	30	100	30	30	100	300	100	100	10	300	[empty]	10 g/ha	[empty]	[empty]	[empty]	300 g/ha	300 g/ha	10	Pre-emergence activity (GR80) ABUTH (ABUTH (velvetleaf)): 100 g/ha; Pre-emergence activity (GR80) DATST (DATST (jimsonweed)): 300 g/ha; Pre-emergence activity (GR80) AGSST [9]: 300 g/ha
